# Experimental data from patent US10881105B2, “Method for breaking dormancy in deciduous trees” (Tapazol Chemical Works Ltd., priority 2014, dated 2021).
# Tested on: Black Gem (P. nigra) plums
# Assay: Bud break assessment after spraying, dormancy release in black gem plums (Example 1)
# Format: in vivo
# Conditions: above 15 grams per liter oil; data not shown
# Description: On the day in which spraying was initiated the number of accumulated chilling units was 14 (being equivalent of 200 hours of chilling). The trees were at a stage where 10% of the bulbs were swollen. Three branches facing different directions were selected in each tree. The upper 20 cm in each branch were examined Each branch contained approximately 13 buds. Each bud was evaluated for bud progression on three separate occasions and bud progression percentages were normalized across the examined branches [table] [table]
smiles,measurement,value
"O=[N+]([O-])c1cc(C(F)(F)F)c(Cl)c([N+](=O)[O-])c1Nc1ncc(C(F)(F)F)cc1Cl [fluazinam, 3-chloro-N-(3-chloro-5-trifluoromethyl-2-pyridyl)-α,α,α-trifluoro-2,6-dinitro-p-toluidine]",efficacy of the composition versus concentration of Fluazinam in oil (regression),the efficacy of the composition decreased
